This is an account of results in ChEMBL document CHEMBL4619728, “A chemically stable peptide agonist to neuromedin U receptor type 2” (Bioorg Med Chem, 2020).

In data set [1] the target is Neuromedin-U receptor 2 (Mus musculus) (UniProt Q8BZ39). The data set is described as follows: Agonist activity at mouse NMUR2 expressed in human HEK293 cells at 10 nM Fluo-4-AM dye based calcium mobilization assay relative to control. The data set is classed as functional, cell-based. Background: Calcium flux is commonly read through the fluorescence of an indicator in the cells.

Data set [2] concerns the target T1, Neuromedin-U receptor 2 (Homo sapiens, UniProt Q9GZQ4). Nature of the data set: Agonist activity at human NMUR2 expressed in CHO cells at 100 nM by Fluo-4-AM dye based calcium mobilization assay. The data set is classed as functional, cell-based.
For data set [3], the target named is T2, Neuromedin-U receptor 1 (Homo sapiens) (UniProt Q9HB89).
T2 sequence (whole entry): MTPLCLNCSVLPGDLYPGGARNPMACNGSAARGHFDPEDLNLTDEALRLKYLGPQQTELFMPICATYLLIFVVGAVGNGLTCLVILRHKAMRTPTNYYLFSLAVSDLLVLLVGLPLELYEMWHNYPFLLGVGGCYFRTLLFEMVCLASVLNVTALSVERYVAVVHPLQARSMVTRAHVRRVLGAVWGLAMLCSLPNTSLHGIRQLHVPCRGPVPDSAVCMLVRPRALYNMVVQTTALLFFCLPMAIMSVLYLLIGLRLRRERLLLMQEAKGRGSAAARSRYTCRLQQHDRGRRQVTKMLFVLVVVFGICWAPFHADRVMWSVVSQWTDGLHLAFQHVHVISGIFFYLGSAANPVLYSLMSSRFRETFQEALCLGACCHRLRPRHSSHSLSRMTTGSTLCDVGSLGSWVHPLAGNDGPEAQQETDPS
Nature of the data set: Agonist activity at human NMUR1 expressed in CHO cells at 100 nM by Fluo-4-AM dye based calcium mobilization assay. The data set is classed as functional, cell-based.

Data set [4] addresses T2, Neuromedin-U receptor 1 (Homo sapiens). Nature of the data set: Agonist activity at human NMUR1 expressed in CHO cells at 1 nM by Fluo-4-AM dye based calcium mobilization assay. The data set is classed as functional, cell-based.
The target in data set [5] is T1, Neuromedin-U receptor 2. Nature of the data set: Agonist activity at human NMUR2 expressed in CHO cells at 1 nM by Fluo-4-AM dye based calcium mobilization assay. The data set is classed as functional, cell-based.
Data set [6] deals with Neuromedin-U receptor 2 (Mus musculus) (UniProt Q8BZ39). The data set is described as follows: Agonist activity at mouse NMUR2 expressed in human HEK293 cells Fluo-4-AM dye based calcium mobilization assay. The data set is classed as functional, cell-based.
A short description of data set [7]: Toxicity in ddY mouse assessed as reduction in body weight gain at 20 ug ,ip. The conditions noted are these: in vivo.
Data set [8] is described as follows: Toxicity in ddY mouse assessed as reduction in body weight gain at 25 to 250 ug intranasal administration. The conditions noted are these: in vivo, inhaled_or_intranasal.
Data set [9] can be described thus: Chemical stability of compound in pH 5.5 citrate buffer at 50 uM assessed as compound recovery after 72 hrs by spectrometric analysis. The data set is classed as physicochemical. Conditions: read-out: Drug recovery.
Data set [10] in a line: Chemical stability of compound in pH 7.4 phosphate buffer at 50 uM assessed as compound recovery after 72 hrs by spectrometric analysis. The data set is classed as physicochemical. The conditions noted are these: read-out: Drug recovery.
In data set [11] the target is T1, Neuromedin-U receptor 2. The data set is described as follows: Agonist activity at human NMUR2 expressed in CHO cells by Fluo-4-AM dye based calcium mobilization assay. The data set is classed as functional, cell-based.
In data set [12] the target is T1, Neuromedin-U receptor 2. Nature of the data set: Agonist activity at human NMUR2 expressed in CHO cells at 10 nM by Fluo-4-AM dye based calcium mobilization assay. The data set is classed as functional, cell-based.
For data set [13], the target named is T2, Neuromedin-U receptor 1 (Homo sapiens). Nature of the data set: Agonist activity at human NMUR1 expressed in CHO cells at 10 nM by Fluo-4-AM dye based calcium mobilization assay. The data set is classed as functional, cell-based.
Data set [14] in a line: Chemical stability of compound in pH 5.5 acetate buffer at 50 uM assessed as compound recovery after 72 hrs by spectrometric analysis. The data set is classed as physicochemical. The conditions noted are these: read-out: Drug recovery.
The nature of data set [15]: Chemical stability of compound in MES buffer pH 5.5 at 100 mM assessed as compound recovery after 72 hrs by spectrometric analysis. Conditions: read-out: Drug recovery. The data set is classed as physicochemical.
Data set [16] in a line: Chemical stability of compound in pH 5.5 citrate-posphate buffer at 50 uM assessed as compound recovery after 72 hrs by spectrometric analysis. The data set is classed as physicochemical. The conditions noted are these: citrate-phosphate buffer, read-out: Drug recovery.
Data set [17] in a line: Chemical stability of compound in pH 7.4 HEPES buffer at 50 uM assessed as compound recovery after 72 hrs by spectrometric analysis. The data set is classed as physicochemical. Conditions: read-out: Drug recovery.

Activity calls are given as the source filed them. No cut-off for these calls is given here. Square brackets hold non-standard residues; d marks the D form. Side chains are listed from the residue outwards. Peptide text beside a SMILES is read from it. * marks the point of attachment. Propanoyl(3-cHex) = O=C(CCC1CCCCC1)*; 2Pal = N[C@@H](Cc1ccccn1)C(=O)O; 3Pal = N[C@@H](Cc1cccnc1)C(=O)O; 4Pal = N[C@@H](Cc1ccncc1)C(=O)O; hSer = N[C@@H](CCO)C(=O)O; Api = NC1(C(=O)O)CCNCC1; Dab = NCC[C@H](N)C(=O)O; Dap = NC[C@H](N)C(=O)O

Neuromedin-U receptor 2 (Mus musculus), sequence (Q8BZ39 whole entry): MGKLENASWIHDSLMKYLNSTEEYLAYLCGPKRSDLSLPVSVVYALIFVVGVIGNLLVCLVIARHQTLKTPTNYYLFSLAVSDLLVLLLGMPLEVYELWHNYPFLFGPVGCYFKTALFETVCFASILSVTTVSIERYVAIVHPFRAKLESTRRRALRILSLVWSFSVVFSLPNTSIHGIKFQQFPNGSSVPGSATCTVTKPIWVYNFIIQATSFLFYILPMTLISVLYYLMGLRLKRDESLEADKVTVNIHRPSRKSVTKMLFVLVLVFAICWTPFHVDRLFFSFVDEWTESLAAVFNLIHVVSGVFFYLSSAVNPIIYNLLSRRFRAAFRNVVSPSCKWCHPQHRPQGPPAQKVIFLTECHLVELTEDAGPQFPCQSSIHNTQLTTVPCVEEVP
T1 sequence (Q9GZQ4 whole entry): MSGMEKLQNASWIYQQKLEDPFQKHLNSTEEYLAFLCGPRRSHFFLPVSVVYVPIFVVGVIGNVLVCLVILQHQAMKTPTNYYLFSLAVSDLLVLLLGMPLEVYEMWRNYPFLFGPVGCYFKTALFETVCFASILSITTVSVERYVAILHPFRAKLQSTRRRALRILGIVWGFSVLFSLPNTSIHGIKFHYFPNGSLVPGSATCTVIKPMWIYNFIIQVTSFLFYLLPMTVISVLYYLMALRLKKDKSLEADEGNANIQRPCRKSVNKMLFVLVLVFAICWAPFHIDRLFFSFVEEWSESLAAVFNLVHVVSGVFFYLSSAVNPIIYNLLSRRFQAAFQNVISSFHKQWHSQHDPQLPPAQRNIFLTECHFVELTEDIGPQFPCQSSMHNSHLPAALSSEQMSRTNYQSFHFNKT

In the case of `CC(C)C[C@H](NC(=O)CCC1CCCCC1)C(=O)N[C@@H](CC(C)C)C(=O)N[C@@H](Cc1ccccn1)C(=O)N1CCC[C@H]1C(=O)N[C@@H](CCCNC(=N)N)C(=O)N[C@@H](CC(N)=O)C(N)=O` ({Propanoyl(3-cHex)}-LL[2Pal]PRN-NH2), the Activity in [1] is 20 to 40%.
The same measure, in the same setting: to `CC(C)C[C@H](NC(=O)CCC1CCCCC1)C(=O)N[C@@H](CC(C)C)C(=O)NC1(C(=O)N2CCC[C@H]2C(=O)N[C@@H](CCCNC(=N)N)C(=O)N[C@@H](CC(N)=O)C(N)=O)CCNCC1` ({Propanoyl(3-cHex)}-LL[Api]PRN-NH2) belongs “inactive”.
For the molecule `CC(C)C[C@H](NC(=O)CCC1CCCCC1)C(=O)N[C@@H](CC(C)C)C(=O)NCC[C@H](N)C(=O)N1CCC[C@H]1C(=O)N[C@@H](CCCNC(=N)N)C(=O)N[C@@H](CC(N)=O)C(N)=O` (H-[Dab]([Leu-Leu-Propanoyl(3-cHex)])PRN-NH2), the Activity (on Neuromedin-U receptor 2 [2]; in data set [3]) was 6% throughout.
On to `CC(C)C[C@H](NC(=O)CCC1CCCCC1)C(=O)N[C@@H](CC(C)C)C(=O)N[C@@H](CC(N)=O)C(=O)N1CCC[C@H]1C(=O)N[C@@H](CCCNC(=N)N)C(=O)N[C@@H](CC(N)=O)C(N)=O` ({Propanoyl(3-cHex)}-LLNPRN-NH2), for which the result (in data set [4]; at Neuromedin-U receptor 2 [5]) was inactive.
Turning to `CC(C)C[C@H](NC(=O)CCC1CCCCC1)C(=O)N[C@@H](CC(C)C)C(=O)N[C@@H](Cc1ccncc1)C(=O)N1CCC[C@H]1C(=O)N[C@@H](CCCNC(=N)N)C(=O)N[C@@H](CC(N)=O)C(N)=O` ({Propanoyl(3-cHex)}-LL[4Pal]PRN-NH2), in [1], the Activity was 20 to 40%.
As a reminder, the EC50 is the concentration that produces a half-maximal response. For `CC(C)C[C@H](NC(=O)CCC1CCCCC1)C(=O)N[C@@H](CC(C)C)C(=O)N[C@@H](CCN)C(=O)N1CCC[C@H]1C(=O)N[C@@H](CCCNC(=N)N)C(=O)N[C@@H](CC(N)=O)C(N)=O` ({Propanoyl(3-cHex)}-LL[Dab]PRN-NH2), the result in data set [6] was Active. Besides, the Activity in data set [1] is 100%; in data set [7] it was “Toxic”; in data set [8], “Toxic”; at Neuromedin-U receptor 2 [11] it was “Dose-dependent effect”. For the same molecule, the remaining at 72 h, 50 µM in [9] worked out at 98%; in [10], 95%. Besides, on Neuromedin-U receptor 2 [11], the EC50 is 2.2 nM.
In the case of `CC(C)C[C@H](NC(=O)CCC1CCCCC1)C(=O)N[C@@H](CC(C)C)C(=O)N[C@@H](CO)C(=O)N1CCC[C@H]1C(=O)N[C@@H](CCCNC(=N)N)C(=O)N[C@@H](CC(N)=O)C(N)=O` ({Propanoyl(3-cHex)}-LLSPRN-NH2), the result (at Neuromedin-U receptor 2 [2]; in data set [3]) was Active. For the same molecule, the outcome (in [4]; on Neuromedin-U receptor 2 [5]) was inactive.
Regarding `CC(C)C[C@H](NC(=O)CCC1CCCCC1)C(=O)N[C@@H](CC(C)C)C(=O)N[C@H](C(=O)N1CCC[C@H]1C(=O)N[C@@H](CCCNC(=N)N)C(=O)N[C@@H](CC(N)=O)C(N)=O)[C@@H](C)O`, the outcome (on Neuromedin-U receptor 2 [12]; in [13]) was inactive.
As to `COC[C@H](NC(=O)[C@H](CC(C)C)NC(=O)[C@H](CC(C)C)NC(=O)CCC1CCCCC1)C(=O)N1CCC[C@H]1C(=O)N[C@@H](CCCNC(=N)N)C(=O)N[C@@H](CC(N)=O)C(N)=O` ({Propanoyl(3-cHex)}-LLS(Me)PRN-NH2), the result (on Neuromedin-U receptor 2 [12]; in data set [13]) was inactive.
For the molecule `CC(C)C[C@H](NC(=O)CCC1CCCCC1)C(=O)N[C@@H](CC(C)C)C(=O)N[C@@H](CC(=O)O)C(=O)N1CCC[C@H]1C(=O)N[C@@H](CCCNC(=N)N)C(=O)N[C@@H](CC(N)=O)C(N)=O` ({Propanoyl(3-cHex)}-LLDPRN-NH2), the result (at Neuromedin-U receptor 2 [2]; in data set [3]; in data set [4]; on Neuromedin-U receptor 2 [5]) was inactive.
Take `CC(C)C[C@H](NC(=O)CCC1CCCCC1)C(=O)N[C@@H](CC(C)C)C(=O)N[C@@H](CN)C(=O)N1CCC[C@H]1C(=O)N[C@@H](CCCNC(=N)N)C(=O)N[C@@H](CC(N)=O)C(N)=O` ({Propanoyl(3-cHex)}-LL[Dap]PRN-NH2): the remaining at 72 h, 50 µM in data set [14] is 89%; in data set [9], 81%; in [16], 64%; in data set [10] it was 87%; in data set [17], 92%. The remaining at 72 h in data set [15] was 93%.
As to `CC(C)C[C@H](NC(=O)CCC1CCCCC1)C(=O)N[C@@H](CC(C)C)C(=O)N[C@@H](CS)C(=O)N1CCC[C@H]1C(=O)N[C@@H](CCCNC(=N)N)C(=O)N[C@@H](CC(N)=O)C(N)=O` ({Propanoyl(3-cHex)}-LLCPRN-NH2), the result (on Neuromedin-U receptor 2 [12]; in [13]) was inactive.
On to `CC(C)C[C@H](NC(=O)CCC1CCCCC1)C(=O)N[C@@H](CC(C)C)C(=O)N[C@@H](Cc1cccnc1)C(=O)N1CCC[C@H]1C(=O)N[C@@H](CCCNC(=N)N)C(=O)N[C@@H](CC(N)=O)C(N)=O` ({Propanoyl(3-cHex)}-LL[3Pal]PRN-NH2), for which, in [1], the Activity lay in the range of 20 to 40%.
`CC(C)C[C@H](NC(=O)CCC1CCCCC1)C(=O)N[C@@H](CC(C)C)C(=O)N[C@H](C(=O)N1CCC[C@H]1C(=O)N[C@@H](CCCNC(=N)N)C(=O)N[C@@H](CC(N)=O)C(N)=O)[C@H](C)O`: the result (on Neuromedin-U receptor 2 [12]; in data set [13]) was inactive.
`CC(C)C[C@H](NC(=O)CCC1CCCCC1)C(=O)N[C@@H](CC(C)C)C(=O)N[C@@H](CCO)C(=O)N1CCC[C@H]1C(=O)N[C@@H](CCCNC(=N)N)C(=O)N[C@@H](CC(N)=O)C(N)=O` ({Propanoyl(3-cHex)}-LL[hSer]PRN-NH2): the outcome (at Neuromedin-U receptor 2 [12]; in data set [13]) was inactive.
